Assays:
[1] = tested on: biological indicators (BIs); experiment: Heated 90 cm bubbler runs, biological indicators in beakers, Tyvek and process challenge devices; assay type: cell-based
Method: In this example embodiment of bubbler 430 and system 420, the Bubbler System was modified to accept a 50 mm outside diameter by 90 cm long glass tube (5 mm wall thickness) attached to a 417-liter REVOX system. During all experiments, 250 mL of REVOX PA liquid was measured by graduated cylinder and poured into the 90 cm Bubbler. The Bubbler System was connected to the 417-liter REVOX sterilization chamber referred to as an improved bubbler vessel configuration. Air was drawn into bubbler 430 using only the force of the vacuum within sterilization chamber. A simple on-off valve was used to control the flow of air through the bubbler, allowing for “blocks” to be created in a similar manner to a normal REVOX cycle. In several cases a flow meter and/or infrared vapor detector was used to monitor the output of the Bubbler. In all cases, unused functions of the modified Revox Sterilization chamber/system were turned off (e.g. Dehumidification Hold was always set to 0) or were disabled (e.g. scope flow valve power was physically unplugged).
(§1) An assortment of process challenge devices (PCDs) were procured as a rough gauge to see what modes of sterilization are possible with the current bubbler 430 setup. These devices included simple Tyvek bags containing BIs, a syringe based PCD which contained a BI, a HF2000 Hemofilter cut to allow a BI to be inserted into the fiber mesh, and an artificial bone matrix provided by the REVOX team. Additionally, an Olympus TJF160 duodenoscope was inoculated with 6-log of bacteria on the exterior surface and within the scope lumens and was exposed to a Bubbler cycle with no hookups. This scope was used to assess penetration of sterilant down fine lumens.
(§2) The difference between heated and non-heated bubbler systems is the resulting humidity present in the chamber during the sterilization cycles. The humidity level on Cycle 250, as an example, exceeded 100% relative humidity. Maximum humidity levels were recorded by visual observation. The importance of humidity was again shown in Cycle 251 where humidity levels never exceeded 60% while testing a rapid, multi block cycle. […] Cycle 252 was used to test the effect of a single block run with a longer period of hold. […] Cycle 253 tested the penetration of Bubbler created PAA vapor into the long lumens of an Olympus TJF-160 duodenoscope. The scope surface, elevator wire channel, air/water channel, and suction biopsy channel were each inoculated with 6-logs of Geobacillus stearothermophilus spores. No hookups were used to pass PAA vapor into the lumens.
Cycle 254 tested a single 15-minute contact time on BIs in the chamber and within a Tyvek pouch. With pump down and ventilation, the total run time was 22 minutes. […] Additionally, between 5 and 10 additional minutes could be cut out of the cycle to achieve the same results. This is based on the rate at which the chemical indicators bleach out within the chamber, which tends to happen less than 5 minutes after PAA exposure begins. Within this cycle as well, two different types of Cantel Medical PAA chemical indicators were used. No appreciable difference was observed between the two varieties of CIs. Cycles 255 and 256 provide insight into the utility of the large scale Bubbler technology. […] The results of the Hemofilter can be explained by the complexity of filter membrane and its massive surface area. More “blocks” or injections of PAA vapor are likely needed to saturate the filter membrane with PAA vapor. The bone matrix, however, is readily porous and should be easily sterilized under these conditions. […] It is hypothesized that the metal is causing a breakdown of the PAA vapor as it passes through the bone matrix.

[2] = tested on: Geobacillus stearothermophilus spores; experiment: Heated bubbler Cycle 253, inoculated Olympus TJF-160 duodenoscope without hookups; assay type: cell-based; conditions: Cycle 253: contact time 1200, 3 inj, 6-logs of spores, no hookups
From the text: as §1
as §2, with “The scope surface, elevator wire channel, air/water channel, and suction biopsy channel were each inoculated with 6-logs of Geobacillus stearothermophilus spores. No hookups were used to pass PAA vapor into the lumens.” left out

[3] = tested on: Mesa brand biological indicator (BI); experiment: System 220 bubbler flow through elevator wire channel, biological indicator kill; assay type: cell-based
From the text: In this embodiment, vapor system 220 was substantially modified to allow PAA vapor to flow from the bubbler 231 into an endoscope's elevator wire channel 270. To generate flow, a duodenoscope was placed in a poly tray (no terminal packaging was used) and the elevator wire channel of the endoscope was connected to the flow path. The vacuum chamber 240 was evacuated to 20 torr (±5 torr) so as to create enough pressure differential to flow PAA vapor 232A without any additional mechanical assistance, such as a pump. The flow rate was estimated to be about 150 ml per minute. Potential system leaks were assessed by closing the On/Off valve of the bubbler, isolating the chamber in manual control mode, and holding for 5 minutes. Chamber leak rate was determined to be less than 0.5 torr per five minutes. Depending on the application and the size of the bubbler vessel, PAA flow rate was to be controlled via the needle valve. In this illustrated embodiment, needle valve 252 was in its maximum flow position during all experiments, indicating needle valve 252 was not needed. Flow of PAA vapor to the distal tip of the scope was assured by affixing a PAA chemical indicator (CI) 280. Additional CIs were placed throughout the chamber to monitor for the presence of residual PAA presence, but these were optional and not critical to the operation of system 220. […]

[4] = limit that the residual is compared with; cited from earlier work
[5] = Evacuation of sterilant after sterilization: PAA in chamber and residuals on scope; conditions: after 30 minute ventilation
From the text: To evacuate the sterilant out after the sterilization process, the experiment utilized three additional parts to the system: • 1. Circulating fan inside the chamber lid to generate turbulence to promote the evacuation process. • 2. Air pump at the outlet vent to help remove the sterilant out of the system. • 3. Medical air inlet to dilute the concentration of PAA for faster evacuating process.
The process included a flow of medical air in at 15 L/min (flow through both chamber and lumen of scope) and a flow of air out of the chamber (generated by the air pump) and a circulation flow inside the chamber (generated by the fan). The equivalent of flow through the chamber allowed the pressure inside the chamber to be closer to atmospheric pressure to reduce scope damage and allow easier design of the chamber.

[6] = tested on: Geobacillus stearothermophilus; experiment: Sterilization of inoculated flexible endoscopes with PAA vapor from a one liter glass bubbler; assay type: cell-based; conditions: 6-7 log inoculum, chamber at room temperature
From the text: A one liter glass bubbler as the vapor system was used to test three different flexible endoscopes to determine the efficacy of the system against microorganisms as a function of size and architecture of endoscope.
The three endoscope types were chosen to meet the three primary conditions of flexible endoscopes: • Long endoscope: XSIF-100 • Complex channel system scope: CFQ-160L • Basic/small scope: BF-P40 and BF-P30
Each scope was inoculated on both the exterior and interior of the lumens with Geobacillus stearothermophilus suspended in serum or saline solution at a target concentration of microorganisms of 6-7 log for each run. The scope was then sealed inside a double Tyvek bag with a hookup adaptor. Each flexible endoscope was evaluated for a total of 22 inoculated surfaces to achieve a greater than 95% confidence level.
The test conditions for each scope are described below: • For CF-Q160L endoscope: • a. Bubbler flow rate: 4000 mL/min • b. Circulation Flow Rate: 12000 mL/min • c. Contact Time: 60 min
For XSIF-100 endoscope: • a. Bubbler flow rate: […] • b. Circulation Flow Rate: 11000 mL/min • c. Contact Time: 15 min and 30 min
For BF-P40 and BF-P30 endoscopes: • a. Bubbler flow rate: 4000 mL/min • b. Circulation Flow Rate: 11000 mL/min • c. Contact Time: 30 min
The chamber for all the runs was at room temperature.

[7] = tested on: Geobacillus stearothermophilus; experiment: Colonoscope sterilization in 60 liter stainless steel chamber; assay type: cell-based; conditions: colonoscope CFQ-160 L, bubbler 4 L/min, circulation approximately 12 L/min, 60 minutes, 6-7 log inoculum
Method: A 60 liter stainless steel chamber was used to determine the effect of chamber size on the efficacy of the bubbler system when the chamber size and material were changed. The flow rate used was 4 L/min for a bubbler and approximately 12 L/min for circulation and the sterilization time was for 60 minutes. Twenty-two inoculated surfaces were studied with the colonoscope (CFQ-160 L). Each scope was inoculated on both the exterior and interior of the lumens with Geobacillus stearothermophilus suspended in serum or saline solution at a target concentration of microorganisms of 6-7 log for each run.

[8] = Cycle 254: contact time 900 (15-minute), 1 inj, inj 5 torr
[9] = Cycle 255: contact time 1200, 3 inj, inj 5 torr
[10] = Cycle 256: contact time 3600, 2 inj, inj 1 torr

CC(=O)OO [PAA, peracetic acid]
BI Results: BIs in Beakers (negative = kill) ([1]; Cycle 250: contact time 1200, 3 inj, inj 5 torr, post inj 500 torr, humidity exceeded 100%): complete kill
BI Results: BIs in Beakers ([1]; Cycle 251: contact time 60, 20 inj, inj 5 torr, humidity never exceeded 60%): No kill
BI Results: BIs in Beakers ([1]; Cycle 252: contact time 1800, 1 inj, inj 5 torr, humidity exceeded 100%): Kill was achieved
BI Results: BIs in Beakers [1, 8]: sterilized
BI Results: BIs in Tyvek [1, 8]: sterilized
BI Results: BIs in Syringe PCD [1, 9]: able to kill
BI Results: Bone Marrow BI [1, 9]: not able to kill
BI Results: Hemofilter PCD BI [1, 9]: not able to kill
BI Results: Bone Marrow PCD [1, 10]: not able to kill
BI Results: Hemofilter PCD [1, 10]: not able to kill
BI Results: Syringe PCD [1, 10]: able to kill
Scope Exterior [2]: full kill
Scope Lumens [2]: 1 log reduction
BI Results ([3]; contact time 600 seconds (Manual 1, Manual 2), chamber 20 torr, BI in vessel along flow path): alive
biological indicators ([3]; scope flow time 30 minutes or greater): dead
worst case residual toxicity [4]: 7050 mg of PAA per total device
residuals on the scope [5]: 30 mg of PAA
Result: survivors on 22 inoculated surfaces ([6]; Bronchoscope BF-P40 and BF-P30, bubbler 4000 mL/min, circulation 11000 mL/min, contact 30 min): All 22 inoculated surfaces have no
Result: survivors on 22 inoculated surfaces ([6]; Colonoscope CFQ-160L, bubbler 4000 mL/min, circulation 12000 mL/min, contact 60 min): All 22 inoculated surfaces have no
Result: survivors on 22 inoculated surfaces ([6]; Enteroscope XSIF-100, bubbler 4000 mL, circulation 11000 mL/min, contact 15 min and 30 min): All 22 inoculated surfaces have no
survivors on 22 inoculated surfaces, scope and biological indicators [7]: no survivors

Source: patent US20200375691A1, “PERACETIC ACID VAPOR STERILIZATION SYSTEM” (Medivators Inc., priority 2018, published 2020)
